System: MV-4-11 cells
Assay: Gene expression microarray analysis (Affymetrix PrimeView) and GSEA
Type: cell-based, human
Design: RFU PODN (11730768_x_at) / Fold change /veh PODN (11730768_x_at) / RFU LINC00158 (11744669_a_at) / Fold change /veh LINC00158 (11744669_a_at) / RFU DUSP10 (11751237_a_at) / Fold change /veh DUSP10 (11751237_a_at) / RFU ID3 (11757404_x_at) / Fold change /veh ID3 (11757404_x_at) / RFU PLEKHG5 (11737974_s_at) / Fold change /veh PLEKHG5 (11737974_s_at) / RFU LRRC4B (11730491_at) / Fold change /veh LRRC4B (11730491_at) / RFU GIMAP4 (11747438_a_at) / Fold change /veh GIMAP4 (11747438_a_at) / RFU KRT8 (11758183_x_at) / Fold change /veh KRT8 (11758183_x_at) / RFU CNN1 (11734310_a_at) / Fold change /veh CNN1 (11734310_a_at) / RFU VPS37D (11726825_at) / Fold change /veh VPS37D (11726825_at) / RFU C10orf10 (11716522_x_at) / Fold change /veh C10orf10 (11716522_x_at) / RFU KIR2DL2 /// KIR2DL4 /// KIR2DL5A /// KIR2DL5B /// KIR2DS1 /// KIR2DS2 /// KIR2DS3 /// KIR2DS4 /// KIR3DL3 /// KIR3DL3 /// KIR3DS1 (11738374_at) / Fold change /veh KIR2DL2 /// KIR2DL4 /// KIR2DL5A /// KIR2DL5B /// KIR2DS1 /// KIR2DS2 /// KIR2DS3 /// KIR2DS4 /// KIR3DL3 /// KIR3DL3 /// KIR3DS1 (11738374_at) / RFU C1QL1 (11718748_at) / Fold change /veh C1QL1 (11718748_at) / RFU TMPRSS4 (11747572_a_at) / Fold change /veh TMPRSS4 (11747572_a_at) / RFU HAMP (11756126_x_at) / Fold change /veh HAMP (11756126_x_at) / RFU RNFT2 (11725882_a_at) / Fold change /veh RNFT2 (11725882_a_at) / RFU NR4A2 (11747474_a_at) / Fold change /veh NR4A2 (11747474_a_at) / RFU ABCC12 (11746883_a_at) / Fold change /veh ABCC12 (11746883_a_at) / RFU TMEM136 (11760407_x_at) / Fold change /veh TMEM136 (11760407_x_at) / RFU CLDN22 /// WWC2 (11732394_at) / Fold change /veh CLDN22 /// WWC2 (11732394_at) / RFU HLA-DPB1 (11760878_x_at) / Fold change /veh HLA-DPB1 (11760878_x_at) / RFU SPINT1 (11716480_a_at) / Fold change /veh SPINT1 (11716480_a_at) / RFU GAP43 (11754022_s_at) / Fold change /veh GAP43 (11754022_s_at) / RFU A4GNT (11735810_at) / Fold change /veh A4GNT (11735810_at) / RFU PRB3 (11715151_x_at) / Fold change /veh PRB3 (11715151_x_at) / RFU TUBB4B (11761932_at) / Fold change /veh TUBB4B (11761932_at) / RFU CAPN14 (11732068_a_at) / Fold change /veh CAPN14 (11732068_a_at) / RFU TMCC2 (11721928_a_at) / Fold change /veh TMCC2 (11721928_a_at) / RFU IRGQ (11745062_a_at) / Fold change /veh IRGQ (11745062_a_at) / RFU FAM174B (11720279_a_at) / Fold change /veh FAM174B (11720279_a_at) / RFU TMPRSS4 (11748680_a_at) / Fold change /veh TMPRSS4 (11748680_a_at) / RFU FAM212B (11763350_a_at) / Fold change /veh FAM212B (11763350_a_at) / RFU PLEKHG5 (11743358_a_at) / Fold change /veh PLEKHG5 (11743358_a_at) / RFU ZSCAN30 (11745921_a_at) / Fold change /veh ZSCAN30 (11745921_a_at) / RFU CMKLR1 (11741424_a_at) / Fold change /veh CMKLR1 (11741424_a_at) / RFU LOC101060620 /// MAPK8IP1 (11723275_at) / Fold change /veh LOC101060620 /// MAPK8IP1 (11723275_at) / RFU SPTSSB (11747773_x_at) / Fold change /veh SPTSSB (11747773_x_at) / RFU PRSS12 (11739890_at) / Fold change /veh PRSS12 (11739890_at) / RFU BIN1 (11741810_x_at) / Fold change /veh BIN1 (11741810_x_at) / RFU WNT11 (11732464_a_at) / Fold change /veh WNT11 (11732464_a_at) / RFU C10orf10 (11716521_a_at) / Fold change /veh C10orf10 (11716521_a_at) / RFU C5orf56 (11738089_at) / Fold change /veh C5orf56 (11738089_at) / RFU CYB561 (11721691_x_at) / Fold change /veh CYB561 (11721691_x_at) / RFU ANKRD19P (11752326_a_at) / Fold change /veh ANKRD19P (11752326_a_at) / RFU OR2T12 /// OR2T33 /// OR2T8 (11738714_s_at) / Fold change /veh OR2T12 /// OR2T33 /// OR2T8 (11738714_s_at) / RFU VCAN (11748164_a_at) / Fold change /veh VCAN (11748164_a_at) / RFU JSRP1 (11732532_at) / Fold change /veh JSRP1 (11732532_at) / RFU KRTAP10-11 (11738290_x_at) / Fold change /veh KRTAP10-11 (11738290_x_at) / RFU MYO3A (11730013_a_at) / Fold change /veh MYO3A (11730013_a_at) / RFU EBF3 (11725865_a_at) / Fold change /veh EBF3 (11725865_a_at) / RFU CAMK2N1 (11719241_x_at) / Fold change /veh CAMK2N1 (11719241_x_at) / RFU C5orf56 (11738088_a_at) / Fold change /veh C5orf56 (11738088_a_at) / RFU OLFML3 (11715873_a_at) / Fold change /veh OLFML3 (11715873_a_at) / RFU LOC100653217 /// NTM (11731650_a_at) / Fold change /veh LOC100653217 /// NTM (11731650_a_at) / RFU MAPK11 (11762145_a_at) / Fold change /veh MAPK11 (11762145_a_at) / RFU FIZ1 (11724087_x_at) / Fold change /veh FIZ1 (11724087_x_at) / RFU OASL (11726364_x_at) / Fold change /veh OASL (11726364_x_at) / RFU SOX15 (11748057_x_at) / Fold change /veh SOX15 (11748057_x_at) / RFU CD79A (11719716_a_at) / Fold change /veh CD79A (11719716_a_at) / RFU HIST1H1D (11736915_at) / Fold change /veh HIST1H1D (11736915_at) / RFU CASKIN2 (11723855_a_at) / Fold change /veh CASKIN2 (11723855_a_at) / RFU LOC730098 (11760151_x_at) / Fold change /veh LOC730098 (11760151_x_at) / RFU OR4N2 (11742367_at) / Fold change /veh OR4N2 (11742367_at) / RFU PRRT2 (11749266_a_at) / Fold change /veh PRRT2 (11749266_a_at) / RFU SNX32 (11753110_a_at) / Fold change /veh SNX32 (11753110_a_at) / RFU CDHR5 (11726645_a_at) / Fold change /veh CDHR5 (11726645_a_at) / RFU RCAN1 (11760418_a_at) / Fold change /veh RCAN1 (11760418_a_at) / RFU FAM167A (11723789_a_at) / Fold change /veh FAM167A (11723789_a_at) / RFU FAM26E (11764081_at) / Fold change /veh FAM26E (11764081_at) / RFU ISYNA1 (11749810_s_at) / Fold change /veh ISYNA1 (11749810_s_at) / RFU ACY1 (11761880_at) / Fold change /veh ACY1 (11761880_at) / RFU 11764098_at / Fold change /veh 11764098_at / RFU SAMD14 (11745864_x_at) / Fold change /veh SAMD14 (11745864_x_at) / RFU NPB (11741838_a_at) / Fold change /veh NPB (11741838_a_at) / RFU TMPRSS6 (11731388_a_at) / Fold change /veh TMPRSS6 (11731388_a_at) / RFU KRTAP10-2 (11738614_at) / Fold change /veh KRTAP10-2 (11738614_at) / RFU ARHGAP8 /// PRR5-ARHGAP8 (11727945_x_at) / Fold change /veh ARHGAP8 /// PRR5-ARHGAP8 (11727945_x_at) / RFU KRTAP5-7 /// NADSYN1 (11734609_at) / Fold change /veh KRTAP5-7 /// NADSYN1 (11734609_at) / RFU RASL12 (11751679_a_at) / Fold change /veh RASL12 (11751679_a_at) / RFU CDKN2B (11736163_a_at) / Fold change /veh CDKN2B (11736163_a_at) / RFU PRF1 (11729649_at) / Fold change /veh PRF1 (11729649_at) / RFU, ZNF638 /// ZNF638-IT1 / Fold change vs veh, ZNF638 /// ZNF638-IT1 / RFU, PANK3 / Fold change vs veh, PANK3 / RFU, SH3YL1 / Fold change vs veh, SH3YL1 / RFU, ZEB2 / Fold change vs veh, ZEB2 / RFU, NRIP1 / Fold change vs veh, NRIP1 / RFU, PTTG1IP / Fold change vs veh, PTTG1IP / RFU, CAPN2 / Fold change vs veh, CAPN2 / RFU, MED14 / Fold change vs veh, MED14 / RFU, SNORA58 / Fold change vs veh, SNORA58 / RFU, C1orf63 / Fold change vs veh, C1orf63 / RFU, LRRFIP1 / Fold change vs veh, LRRFIP1 / RFU, NDUFAF7 / Fold change vs veh, NDUFAF7 / RFU, SLC12A2 / Fold change vs veh, SLC12A2 / RFU, IBTK / Fold change vs veh, IBTK / RFU, ESF1 / Fold change vs veh, ESF1 / Fold change vs veh, TMEM50B / RFU, TAOK1 / Fold change vs veh, TAOK1 / RFU, ACBD3 / Fold change vs veh, ACBD3 / RFU, TMA16 / Fold change vs veh, TMA16 / RFU, RWDD3 / Fold change vs veh, RWDD3 / RFU, BCAT1 / Fold change vs veh, BCAT1 / RFU, EDEM3 / Fold change vs veh, EDEM3 / RFU, TMEM33 / Fold change vs veh, TMEM33 / RFU, WDR75 / Fold change vs veh, WDR75 / RFU, AHCTF1 / Fold change vs veh, AHCTF1 / RFU, TFRC / Fold change vs veh, TFRC / RFU, ZDHHC17 / Fold change vs veh, ZDHHC17 / RFU, NOM1 / Fold change vs veh, NOM1 / RFU, ARL8B / Fold change vs veh, ARL8B / RFU, ZBTB11 / Fold change vs veh, ZBTB11 / RFU, TAMM41 / Fold change vs veh, TAMM41 / RFU, KIAA1704 /// LOC100996395 / Fold change vs veh, KIAA1704 /// LOC100996395 / RFU, ING1 / Fold change vs veh, ING1 / RFU, TRMT61B / Fold change vs veh, TRMT61B / RFU, FUBP3 / Fold change vs veh, FUBP3 / RFU, TP53 / Fold change vs veh, TP53 / RFU, TNKS2 / Fold change vs veh, TNKS2 / RFU, ZFP14 / Fold change vs veh, ZFP14 / RFU, ACTR2 / Fold change vs veh, ACTR2 / RFU, PPP3R1 / Fold change vs veh, PPP3R1 / RFU, PIK3R1 / Fold change vs veh, PIK3R1 / RFU, HNRNPA1 / Fold change vs veh, HNRNPA1 / RFU, RNF170 / Fold change vs veh, RNF170 / RFU, ZNF28 / Fold change vs veh, ZNF28 / RFU, RNGTT / Fold change vs veh, RNGTT / RFU, OGT / Fold change vs veh, OGT / RFU, BRD1 / Fold change vs veh, BRD1 / RFU, MARS / Fold change vs veh, MARS / RFU, ZNF655 / Fold change vs veh, ZNF655 / RFU, FAHD1 / Fold change vs veh, FAHD1 / RFU, BDP1 / Fold change vs veh, BDP1 / RFU, LRRCC1 / Fold change vs veh, LRRCC1 / RFU, ARID1A / Fold change vs veh, ARID1A / RFU, ZNF146 / Fold change vs veh, ZNF146 / RFU, ZNF330 / Fold change vs veh, ZNF330 / RFU, GPN3 / Fold change vs veh, GPN3 / RFU, C9orf123 / Fold change vs veh, C9orf123 / RFU, N4BP2L2 / Fold change vs veh, N4BP2L2 / RFU, ARFIP1 / Fold change vs veh, ARFIP1 / RFU, FAM179B / Fold change vs veh, FAM179B / RFU, BCL10 / Fold change vs veh, BCL10 / RFU, UHRF1BP1L / Fold change vs veh, UHRF1BP1L / RFU, BET1 / Fold change vs veh, BET1 / RFU, CNOT2 / Fold change vs veh, CNOT2 / RFU, ZNF268 / Fold change vs veh, ZNF268 / Fold change vs veh, ZNF507 / RFU, DGCR2 / Fold change vs veh, DGCR2 / RFU, WDSUB1 / Fold change vs veh, WDSUB1 / Fold change vs veh, HSP90B1 /// MIR3652 / RFU, ADSS / Fold change vs veh, ADSS / RFU, GK / Fold change vs veh, GK / RFU, ZNF148 / Fold change vs veh, ZNF148 / RFU, TAF9 / Fold change vs veh, TAF9 / RFU, SLC1A5 / Fold change vs veh, SLC1A5 / RFU, SLMO2 / Fold change vs veh, SLMO2 / RFU, ABCC4 / Fold change vs veh, ABCC4 / RFU, LOC101060439 /// RAP1B / Fold change vs veh, LOC101060439 /// RAP1B / RFU, RFX7 / Fold change vs veh, RFX7 / RFU, GTPBP10 / Fold change vs veh, GTPBP10 / RFU, CNEP1R1 / Fold change vs veh, CNEP1R1 / RFU, BIVM-ERCC5 /// ERCC5 / Fold change vs veh, BIVM-ERCC5 /// ERCC5 / RFU, ILF3 / Fold change vs veh, ILF3 / RFU 11762660_at / Fold change /veh 11762660_at / RFU VCAN (11757783_s_at) / Fold change /veh VCAN (11757783_s_at) / RFU DDX43 (11728927_at) / Fold change /veh DDX43 (11728927_at) / RFU KRT8 (11758188_x_at) / Fold change /veh KRT8 (11758188_x_at) / RFU NKD1 (11759106_at) / Fold change /veh NKD1 (11759106_at) / RFU SRD5A1 (11742802_a_at) / Fold change /veh SRD5A1 (11742802_a_at) / RFU TPSAB1 /// TPSB2 (11721975_s_at) / Fold change /veh TPSAB1 /// TPSB2 (11721975_s_at) / RFU GSTM3 (11746129_a_at) / Fold change /veh GSTM3 (11746129_a_at) / RFU IL23R (11737362_x_at) / Fold change /veh IL23R (11737362_x_at) / RFU TMEM51 (11727254_a_at) / Fold change /veh TMEM51 (11727254_a_at) / RFU PIWIL2 (11732686_x_at) / Fold change /veh PIWIL2 (11732686_x_at) / RFU ORM1 (11744905_x_at) / Fold change /veh ORM1 (11744905_x_at) / RFU CCDC152 (11743942_at) / Fold change /veh CCDC152 (11743942_at) / RFU ECM1 (11717891_a_at) / Fold change /veh ECM1 (11717891_a_at) / RFU IL23R (11748794_a_at) / Fold change /veh IL23R (11748794_a_at) / RFU TNFAIP8L3 (11732012_x_at) / Fold change /veh TNFAIP8L3 (11732012_x_at) / RFU MBOAT4 (11741988_at) / Fold change /veh MBOAT4 (11741988_at) / RFU 11764193_at / Fold change /veh 11764193_at / RFU TMEM53 (11763286_at) / Fold change /veh TMEM53 (11763286_at) / RFU MAGEB2 (11727129_at) / Fold change /veh MAGEB2 (11727129_at) / RFU TMEM200A (11744735_a_at) / Fold change /veh TMEM200A (11744735_a_at) / RFU CCDC152 (11751479_a_at) / Fold change /veh CCDC152 (11751479_a_at) / RFU FAM211A (11726209_a_at) / Fold change /veh FAM211A (11726209_a_at) / RFU RGS16 (11746705_a_at) / Fold change /veh RGS16 (11746705_a_at) / RFU VCAN (11755009_s_at) / Fold change /veh VCAN (11755009_s_at) / RFU RHOB (11743442_s_at) / Fold change /veh RHOB (11743442_s_at) / RFU RGS16 (11720943_a_at) / Fold change /veh RGS16 (11720943_a_at) / RFU RGS16 (11720944_at) / Fold change /veh RGS16 (11720944_at) / RFU, VPS4B / Fold change vs veh, VPS4B / RFU, CREB1 / Fold change vs veh, CREB1 / RFU, DNAJC13 / Fold change vs veh, DNAJC13 / RFU, GNAQ / Fold change vs veh, GNAQ / RFU, CDK5R1 / Fold change vs veh, CDK5R1 / RFU, ZRANB3 / Fold change vs veh, ZRANB3 / RFU, CUL4A / Fold change vs veh, CUL4A / RFU, CCNY / Fold change vs veh, CCNY / RFU, UFL1 / Fold change vs veh, UFL1 / RFU, COG3 / Fold change vs veh, COG3 / RFU, DIAPH2 / Fold change vs veh, DIAPH2 / RFU, SKA2 / Fold change vs veh, SKA2 / RFU, AFF3 / Fold change vs veh, AFF3 / RFU, LMF1 / Fold change vs veh, LMF1 / RFU, IPO11 / Fold change vs veh, IPO11 / RFU, DFFB / Fold change vs veh, DFFB / RFU, FOXP1 / Fold change vs veh, FOXP1 / RFU, CARD8 / Fold change vs veh, CARD8 / RFU, STRN3 / Fold change vs veh, STRN3 / RFU, ADK / Fold change vs veh, ADK / RFU, RASSF2 / Fold change vs veh, RASSF2 / RFU, WIPF1 / Fold change vs veh, WIPF1 / RFU, LARP1B / Fold change vs veh, LARP1B / RFU, RASA1 / Fold change vs veh, RASA1 / RFU, RB1 / Fold change vs veh, RB1 / RFU, PPFIA1 / Fold change vs veh, PPFIA1 / RFU, MAT2A / Fold change vs veh, MAT2A / RFU, CCT5 / Fold change vs veh, CCT5 / RFU, WDR92 / Fold change vs veh, WDR92 / RFU, CUX1 / Fold change vs veh, CUX1 / RFU, TTC7A / Fold change vs veh, TTC7A / RFU, TMEM135 / Fold change vs veh, TMEM135 / RFU, DEPTOR / Fold change vs veh, DEPTOR / RFU, CPM / Fold change vs veh, CPM / RFU, DNAJB6 / Fold change vs veh, DNAJB6 / RFU, CACNA2D3 / Fold change vs veh, CACNA2D3 / RFU, DTX4 / Fold change vs veh, DTX4 / RFU, TFCP2 / Fold change vs veh, TFCP2 / RFU, GMCL1 /// GMCL1P1 / Fold change vs veh, GMCL1 /// GMCL1P1 / RFU, AEBP2 / Fold change vs veh, AEBP2 / RFU, SNHG1 /// SNORD22 /// SNORD25 /// SNORD26 /// SNORD27 /// SNORD28 /// SNORD29 /// SNORD31 / Fold change vs veh, SNHG1 /// SNORD22 /// SNORD25 /// SNORD26 /// SNORD27 /// SNORD28 /// SNORD29 /// SNORD31 / Fold change (Aza/veh), C12orf56 (ProbeSet 11735607_a_at) / Fold change (ACY-1035/veh), C12orf56 (ProbeSet 11735607_a_at) / Fold change (Aza/veh), FGFR1OP (ProbeSet 11751329_s_at) / Fold change (ACY-1035/veh), FGFR1OP (ProbeSet 11751329_s_at) / Fold change (Aza/veh), VPS36 (ProbeSet 11739960_a_at) / Fold change (ACY-1035/veh), VPS36 (ProbeSet 11739960_a_at) / RFU SYPL1 (11715823_x_at) / Fold change /veh SYPL1 (11715823_x_at) / RFU IGFBP7 (11715501_s_at) / Fold change /veh IGFBP7 (11715501_s_at) / RFU REEP3 (11722064_at) / Fold change /veh REEP3 (11722064_at) / RFU IGLL1 (11728026_x_at) / Fold change /veh IGLL1 (11728026_x_at): dose or concentration left out as unconfirmed
Settings: MV-4-11 cells, 48 hours

Compound: Nc1ncn([C@@H]2O[C@H](CO)[C@@H](O)[C@H]2O)c(=O)n1 [azacitidine]
- RFU ACY1 (11761880_at): 18.62 RFU

Reference: PMC5218480 (PLoS ONE, 2017)
